{"source": "ChEMBL document CHEMBL4387741", "about": "“Optimization of novel reversible Bruton's tyrosine kinase inhibitors identified using Tethering-fragment-based screens” (Bioorg Med Chem, 2019)", "key": {"[1]": {"target": "Mitogen-activated protein kinase kinase kinase 6 (Homo sapiens) (UniProt O95382)", "experiment": "Inhibition of wild-type human partial length ASK2 (M278 to R972 residues) expressed in mammalian expression system at 1 uM by Kinomescan method relative to control"}, "[2]": {"target": "Death-associated protein kinase 1 (Homo sapiens) (UniProt P53355)", "sequence (P53355 whole entry, looked up, the tested form may be a part)": "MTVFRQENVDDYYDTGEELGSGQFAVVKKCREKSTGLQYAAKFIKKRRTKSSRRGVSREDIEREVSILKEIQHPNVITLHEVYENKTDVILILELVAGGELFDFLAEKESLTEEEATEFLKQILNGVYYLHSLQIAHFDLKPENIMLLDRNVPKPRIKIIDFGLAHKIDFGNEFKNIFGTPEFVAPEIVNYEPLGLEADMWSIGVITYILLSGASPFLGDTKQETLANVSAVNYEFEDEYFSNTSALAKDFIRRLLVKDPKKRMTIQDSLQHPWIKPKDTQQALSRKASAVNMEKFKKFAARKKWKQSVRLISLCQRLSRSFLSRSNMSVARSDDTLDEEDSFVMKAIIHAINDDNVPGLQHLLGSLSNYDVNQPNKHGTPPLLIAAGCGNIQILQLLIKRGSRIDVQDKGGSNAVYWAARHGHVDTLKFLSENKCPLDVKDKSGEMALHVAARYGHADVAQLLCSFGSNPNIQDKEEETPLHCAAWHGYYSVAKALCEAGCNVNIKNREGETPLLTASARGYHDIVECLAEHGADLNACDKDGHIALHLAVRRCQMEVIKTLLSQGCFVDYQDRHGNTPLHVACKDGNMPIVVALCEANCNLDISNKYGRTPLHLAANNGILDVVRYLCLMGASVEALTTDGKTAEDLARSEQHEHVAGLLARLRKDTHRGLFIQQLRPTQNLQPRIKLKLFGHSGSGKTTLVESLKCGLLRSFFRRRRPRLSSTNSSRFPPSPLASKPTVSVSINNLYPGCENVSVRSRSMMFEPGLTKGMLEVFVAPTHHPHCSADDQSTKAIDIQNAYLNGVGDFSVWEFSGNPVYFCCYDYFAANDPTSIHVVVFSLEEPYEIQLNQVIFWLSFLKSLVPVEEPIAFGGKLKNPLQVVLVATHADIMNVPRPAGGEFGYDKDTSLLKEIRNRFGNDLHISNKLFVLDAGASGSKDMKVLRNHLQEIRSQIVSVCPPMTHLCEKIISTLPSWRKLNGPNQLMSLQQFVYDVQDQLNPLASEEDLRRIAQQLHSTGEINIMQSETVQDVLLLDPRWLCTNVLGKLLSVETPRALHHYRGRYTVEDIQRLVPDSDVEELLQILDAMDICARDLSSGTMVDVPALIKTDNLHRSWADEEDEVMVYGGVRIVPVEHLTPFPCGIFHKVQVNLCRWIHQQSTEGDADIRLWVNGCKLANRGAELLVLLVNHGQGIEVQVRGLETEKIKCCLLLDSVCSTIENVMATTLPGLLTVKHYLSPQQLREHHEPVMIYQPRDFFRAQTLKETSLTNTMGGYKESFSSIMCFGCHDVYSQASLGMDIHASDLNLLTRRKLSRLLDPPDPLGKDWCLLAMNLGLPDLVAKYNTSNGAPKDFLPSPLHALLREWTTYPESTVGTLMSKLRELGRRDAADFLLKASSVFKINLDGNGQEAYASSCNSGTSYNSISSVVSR", "experiment": "Inhibition of wild-type human partial length DAPK1 (M1 to F296 residues) expressed in bacterial expression system at 1 uM by Kinomescan method relative to control"}, "[3]": {"system": "Epidermal growth factor receptor (Homo sapiens), P00533 [UNDEFINED MUTATION]", "experiment": "Inhibition of human partial length EGFR S752-I759del mutant expressed in bacterial expression system at 1 uM by Kinomescan method relative to control"}, "[4]": {"system": "Receptor-type tyrosine-protein kinase FLT3 (Homo sapiens), P36888 [D835Y]", "experiment": "Inhibition of human partial length FLT3 D835Y mutant (Q580 to Y969 residues) expressed in bacterial expression system at 1 uM by Kinomescan method relative to control"}, "[5]": {"target": "MAP kinase-interacting serine/threonine-protein kinase 2 (Homo sapiens) (UniProt Q9HBH9)", "experiment": "Inhibition of wild-type human partial length MKNK2 (G63 to S388 residues) expressed in mammalian expression system at 1 uM by Kinomescan method relative to control"}, "[6]": {"target": "Mitogen-activated protein kinase 12 (Homo sapiens) (UniProt P53778)", "experiment": "Inhibition of wild-type human full length p38-gamma (M1 to L367 residues) expressed in mammalian expression system at 1 uM by Kinomescan method relative to control"}, "[7]": {"target": "Cyclin-dependent kinase 17 (Homo sapiens) (UniProt Q00537)", "experiment": "Inhibition of wild-type human full length PCTK2 (M1 to F523 residues) expressed in bacterial expression system at 1 uM by Kinomescan method relative to control"}, "[8]": {"target": "Wee1-like protein kinase (Homo sapiens) (UniProt P30291)", "experiment": "Inhibition of wild-type human partial length WEE1 (M291 to K575 residues) expressed in bacterial expression system at 1 uM by Kinomescan method relative to control"}, "[9]": {"experiment": "Protein binding in human plasma assessed as unbound fraction at 2 uM by rapid equilibrium dialysis method", "format": "ADME, cell-free"}, "[10]": {"system": "Tyrosine-protein kinase ABL1 (Homo sapiens), P00519 [Y253F]", "experiment": "Inhibition of human phosphorylated ABL1 Y253F mutant (S229 to K512 residues) expressed in mammalian expression system at 10 uM by Kinomescan method relative to control"}, "[11]": {"target": "NUAK family SNF1-like kinase 1 (Homo sapiens) (UniProt O60285)", "experiment": "Inhibition of wild-type human partial length ARK5 (E25 to I332 residues) expressed in bacterial expression system at 10 uM by Kinomescan method relative to control"}, "[12]": {"target": "Calcium/calmodulin-dependent protein kinase kinase 2 (Homo sapiens) (UniProt Q96RR4)", "sequence (Q96RR4 2-588 limits assumed)": "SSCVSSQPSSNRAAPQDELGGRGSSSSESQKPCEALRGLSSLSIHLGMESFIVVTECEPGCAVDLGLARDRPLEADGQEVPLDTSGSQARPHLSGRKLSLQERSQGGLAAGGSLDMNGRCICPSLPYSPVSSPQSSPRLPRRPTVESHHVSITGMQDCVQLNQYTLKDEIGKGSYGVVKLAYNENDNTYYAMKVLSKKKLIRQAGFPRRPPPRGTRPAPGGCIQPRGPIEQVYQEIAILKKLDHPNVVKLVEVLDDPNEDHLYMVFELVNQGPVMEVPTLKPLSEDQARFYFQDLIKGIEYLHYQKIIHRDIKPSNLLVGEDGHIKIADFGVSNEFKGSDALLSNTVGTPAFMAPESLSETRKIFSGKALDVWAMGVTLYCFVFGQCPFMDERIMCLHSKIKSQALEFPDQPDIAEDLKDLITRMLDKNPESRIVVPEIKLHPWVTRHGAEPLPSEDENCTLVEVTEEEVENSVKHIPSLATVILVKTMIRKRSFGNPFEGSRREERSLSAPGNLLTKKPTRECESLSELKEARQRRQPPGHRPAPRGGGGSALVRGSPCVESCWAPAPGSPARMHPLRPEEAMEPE", "experiment": "Inhibition of wild-type human partial length CAMKK2 (D65 to V471 residues) expressed in bacterial expression system at 10 uM by Kinomescan method relative to control"}, "[13]": {"target": "Serine/threonine-protein kinase Chk2 (Homo sapiens) (UniProt O96017)", "experiment": "Inhibition of wild-type human partial length CHEK2 (S253 to E574 residues) expressed in bacterial expression system at 10 uM by Kinomescan method relative to control"}, "[14]": {"target": "Macrophage colony-stimulating factor 1 receptor (Homo sapiens) (UniProt P07333)", "experiment": "Inhibition of wild-type human partial length autoinhibited CSF1R (Y538 to S939 residues) expressed in mammalian expression system at 10 uM by Kinomescan method relative to control"}, "[15]": {"target": "Ephrin type-A receptor 1 (Homo sapiens) (UniProt P21709)", "sequence (P21709 whole entry, the tested form may be a part)": "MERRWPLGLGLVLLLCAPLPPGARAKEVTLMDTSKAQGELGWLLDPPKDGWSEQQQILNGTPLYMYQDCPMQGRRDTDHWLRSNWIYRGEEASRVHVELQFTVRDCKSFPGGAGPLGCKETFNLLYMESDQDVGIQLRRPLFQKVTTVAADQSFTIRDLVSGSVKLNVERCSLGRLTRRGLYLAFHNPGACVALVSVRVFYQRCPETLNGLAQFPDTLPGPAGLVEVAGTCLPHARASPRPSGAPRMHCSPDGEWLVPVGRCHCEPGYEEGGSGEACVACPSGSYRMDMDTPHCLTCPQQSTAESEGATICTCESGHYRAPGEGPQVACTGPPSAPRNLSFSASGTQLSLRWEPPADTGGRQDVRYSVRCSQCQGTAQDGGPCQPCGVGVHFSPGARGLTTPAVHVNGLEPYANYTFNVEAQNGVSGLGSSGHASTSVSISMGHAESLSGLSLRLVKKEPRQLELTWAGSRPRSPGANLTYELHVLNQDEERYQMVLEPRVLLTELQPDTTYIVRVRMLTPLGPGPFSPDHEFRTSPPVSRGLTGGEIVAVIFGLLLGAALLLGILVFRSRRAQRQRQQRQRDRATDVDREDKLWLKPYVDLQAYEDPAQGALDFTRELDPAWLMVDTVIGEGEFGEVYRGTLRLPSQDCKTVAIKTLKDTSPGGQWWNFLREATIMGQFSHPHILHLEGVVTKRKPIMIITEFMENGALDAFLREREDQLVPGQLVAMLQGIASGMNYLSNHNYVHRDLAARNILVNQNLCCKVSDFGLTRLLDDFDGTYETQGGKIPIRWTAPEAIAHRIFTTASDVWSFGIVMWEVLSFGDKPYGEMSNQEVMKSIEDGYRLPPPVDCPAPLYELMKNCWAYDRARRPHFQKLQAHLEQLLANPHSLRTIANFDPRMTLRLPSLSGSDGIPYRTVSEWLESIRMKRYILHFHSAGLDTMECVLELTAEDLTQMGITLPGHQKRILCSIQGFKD", "experiment": "Inhibition of wild-type human partial length EPHA1 (V588 to I913 residues) expressed in bacterial expression system at 10 uM by Kinomescan method relative to control"}, "[16]": {"target": "Fibroblast growth factor receptor 3 (Homo sapiens) (UniProt P22607)", "experiment": "Inhibition of wild-type human partial length FGFR3 (R442 to S771 residues) expressed in bacterial expression system at 10 uM by Kinomescan method relative to control"}, "[17]": {"target": "Tyrosine-protein kinase Fgr (Homo sapiens) (UniProt P09769)", "experiment": "Inhibition of wild-type human partial length FGR (L233 to T529 residues) expressed in bacterial expression system at 10 uM by Kinomescan method relative to control"}, "[18]": {"target": "Vascular endothelial growth factor receptor 3 (Homo sapiens) (UniProt P35916)", "experiment": "Inhibition of wild-type human partial length FLT4 (E821 to E1196 residues) expressed in bacterial expression system at 10 uM by Kinomescan method relative to control"}, "[19]": {"target": "Mitogen-activated protein kinase kinase kinase 2 (Homo sapiens) (UniProt Q9Y2U5)", "experiment": "Inhibition of wild-type human partial length MAP3K2 (S315 to H619 residues) expressed in mammalian expression system at 10 uM by Kinomescan method relative to control"}, "[20]": {"target": "MAP/microtubule affinity-regulating kinase 4 (Homo sapiens) (UniProt Q96L34)", "experiment": "Inhibition of wild-type human partial length MARK4 (K29 to G340 residues) expressed in bacterial expression system at 10 uM by Kinomescan method relative to control"}, "[21]": {"target": "Tyrosine-protein kinase Mer (Homo sapiens) (UniProt Q12866)", "sequence (Q12866 whole entry, the tested form may be a part)": "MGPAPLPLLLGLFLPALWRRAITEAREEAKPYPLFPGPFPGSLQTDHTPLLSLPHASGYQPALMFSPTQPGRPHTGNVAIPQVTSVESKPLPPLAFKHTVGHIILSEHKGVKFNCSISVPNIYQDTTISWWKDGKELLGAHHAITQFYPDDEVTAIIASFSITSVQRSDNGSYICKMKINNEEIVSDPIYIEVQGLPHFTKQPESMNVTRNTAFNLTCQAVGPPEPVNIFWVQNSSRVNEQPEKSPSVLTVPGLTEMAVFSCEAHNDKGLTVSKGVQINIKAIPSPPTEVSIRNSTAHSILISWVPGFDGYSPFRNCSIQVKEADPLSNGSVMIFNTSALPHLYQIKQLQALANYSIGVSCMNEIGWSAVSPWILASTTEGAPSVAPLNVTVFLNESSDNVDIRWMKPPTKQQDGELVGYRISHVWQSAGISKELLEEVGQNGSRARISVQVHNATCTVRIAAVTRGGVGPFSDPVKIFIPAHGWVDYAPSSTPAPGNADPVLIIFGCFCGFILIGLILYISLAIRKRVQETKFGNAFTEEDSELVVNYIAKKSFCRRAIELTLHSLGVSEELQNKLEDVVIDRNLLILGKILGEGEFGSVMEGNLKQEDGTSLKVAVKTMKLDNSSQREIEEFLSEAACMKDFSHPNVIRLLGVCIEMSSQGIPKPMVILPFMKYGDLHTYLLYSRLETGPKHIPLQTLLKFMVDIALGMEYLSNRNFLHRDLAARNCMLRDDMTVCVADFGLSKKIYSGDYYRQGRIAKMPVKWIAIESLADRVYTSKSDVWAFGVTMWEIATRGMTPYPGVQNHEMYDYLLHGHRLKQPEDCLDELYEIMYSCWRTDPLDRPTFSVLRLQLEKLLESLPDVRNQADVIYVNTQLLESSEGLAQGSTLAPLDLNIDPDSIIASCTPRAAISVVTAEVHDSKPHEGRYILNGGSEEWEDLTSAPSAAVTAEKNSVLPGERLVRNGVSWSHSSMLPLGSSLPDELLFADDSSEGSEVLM", "experiment": "Inhibition of wild-type human partial length MERTK (R557 to L884 residues) expressed in bacterial expression system at 10 uM by Kinomescan method relative to control"}, "[22]": {"target": "cAMP-dependent protein kinase catalytic subunit PRKX (Homo sapiens) (UniProt P51817)", "experiment": "Inhibition of wild-type human partial length PRKX (M1 to F358 residues) expressed in bacterial expression system at 10 uM by Kinomescan method relative to control"}, "[23]": {"system": "Proto-oncogene tyrosine-protein kinase receptor Ret (Homo sapiens), P07949 [V804L]", "sequence (P07949 whole entry V804L, the tested form may be a part)": "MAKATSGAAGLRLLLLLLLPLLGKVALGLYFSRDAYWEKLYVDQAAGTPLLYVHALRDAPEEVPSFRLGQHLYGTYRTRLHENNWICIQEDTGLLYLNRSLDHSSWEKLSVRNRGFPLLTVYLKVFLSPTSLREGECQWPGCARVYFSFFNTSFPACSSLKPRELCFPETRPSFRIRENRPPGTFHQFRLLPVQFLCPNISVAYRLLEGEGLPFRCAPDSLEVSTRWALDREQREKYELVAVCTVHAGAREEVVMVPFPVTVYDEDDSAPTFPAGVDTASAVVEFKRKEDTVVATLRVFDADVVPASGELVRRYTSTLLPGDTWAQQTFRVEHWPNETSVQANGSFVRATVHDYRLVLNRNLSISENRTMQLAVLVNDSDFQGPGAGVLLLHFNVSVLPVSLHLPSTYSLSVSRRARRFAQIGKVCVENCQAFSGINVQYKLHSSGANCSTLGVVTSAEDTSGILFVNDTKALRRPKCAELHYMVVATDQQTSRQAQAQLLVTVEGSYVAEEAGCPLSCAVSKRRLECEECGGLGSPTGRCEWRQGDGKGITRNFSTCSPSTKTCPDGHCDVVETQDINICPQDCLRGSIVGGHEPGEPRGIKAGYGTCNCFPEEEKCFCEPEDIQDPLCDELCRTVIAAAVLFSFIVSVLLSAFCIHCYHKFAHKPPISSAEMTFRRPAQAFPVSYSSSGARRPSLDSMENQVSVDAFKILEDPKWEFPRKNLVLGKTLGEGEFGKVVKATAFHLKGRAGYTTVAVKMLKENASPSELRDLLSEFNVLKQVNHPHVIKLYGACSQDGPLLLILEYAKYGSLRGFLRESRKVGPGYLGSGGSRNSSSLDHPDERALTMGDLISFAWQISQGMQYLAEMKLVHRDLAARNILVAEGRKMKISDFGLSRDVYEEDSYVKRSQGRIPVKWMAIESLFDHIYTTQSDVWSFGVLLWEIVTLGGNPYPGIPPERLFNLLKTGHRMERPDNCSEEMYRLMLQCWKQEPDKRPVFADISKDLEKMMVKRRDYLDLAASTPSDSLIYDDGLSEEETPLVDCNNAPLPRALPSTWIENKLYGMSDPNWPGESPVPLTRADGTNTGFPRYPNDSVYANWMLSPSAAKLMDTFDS", "experiment": "Inhibition of human partial length RET V804L mutant (E713 to D1014 residues) expressed in bacterial expression system at 10 uM by Kinomescan method relative to control"}, "[24]": {"target": "Ribosomal protein S6 kinase alpha-6 (Homo sapiens) (UniProt Q9UK32)", "experiment": "Inhibition of wild-type human partial length N-terminal RSK4 kinase domain 1 (M1 to E397 residues) expressed in mammalian expression system at 10 uM by Kinomescan method relative to control"}, "[25]": {"target": "SNF-related serine/threonine-protein kinase (Homo sapiens) (UniProt Q9NRH2)", "experiment": "Inhibition of wild-type human partial length SNRK (M1 to E339 residues) expressed in mammalian expression system at 10 uM by Kinomescan method relative to control"}, "[26]": {"target": "Tyrosine-protein kinase receptor Tie-1 (Homo sapiens) (UniProt P35590)", "experiment": "Inhibition of wild-type human partial length TIE1 (T819 to A1138 residues) expressed in bacterial expression system at 10 uM by Kinomescan method relative to control"}, "[27]": {"target": "Mitogen-activated protein kinase kinase kinase 12 (Homo sapiens) (UniProt Q12852)", "experiment": "Inhibition of wild-type human full length DLK (M1 to P859 residues) expressed in mammalian expression system at 10 uM by Kinomescan method relative to control"}}}
{"molecule": "O=C(Nc1cccc([C@@H]2CN(c3ncnc4[nH]ccc34)CCN2CCO)c1)Nc1c(F)cccc1N1CCCC1", "values": [{"measurement": "inhibition", "setting": "[1]", "result": 81, "unit": "%"}, {"measurement": "inhibition", "setting": "[2]", "result": 5.3, "unit": "%"}, {"measurement": "inhibition", "setting": "[3]", "result": 100, "unit": "%"}, {"measurement": "inhibition", "setting": "[4]", "result": 2.2, "unit": "%"}, {"measurement": "inhibition", "setting": "[5]", "result": 64, "unit": "%"}, {"measurement": "inhibition", "setting": "[6]", "result": 81, "unit": "%"}, {"measurement": "inhibition", "setting": "[7]", "result": 100, "unit": "%"}, {"measurement": "inhibition", "setting": "[8]", "result": 100, "unit": "%"}, {"measurement": "Fu", "setting": "[9]", "result": 1, "unit": "%"}]}
{"molecule": "O=C(Nc1cccc([C@H]2CCCN(c3ncnc4[nH]ccc34)C2)c1)Nc1ccccc1N1CCCC1", "values": [{"measurement": "inhibition", "setting": "[10]", "result": 74, "unit": "%"}, {"measurement": "inhibition", "setting": "[11]", "result": 25, "unit": "%"}, {"measurement": "inhibition", "setting": "[12]", "result": 92, "unit": "%"}, {"measurement": "inhibition", "setting": "[13]", "result": 47, "unit": "%"}, {"measurement": "inhibition", "setting": "[14]", "result": 64, "unit": "%"}, {"measurement": "inhibition", "setting": "[15]", "result": 89, "unit": "%"}, {"measurement": "inhibition", "setting": "[16]", "result": 46, "unit": "%"}, {"measurement": "inhibition", "setting": "[17]", "result": 62, "unit": "%"}, {"measurement": "inhibition", "setting": "[18]", "result": 0.55, "unit": "%"}, {"measurement": "inhibition", "setting": "[19]", "result": 27, "unit": "%"}, {"measurement": "inhibition", "setting": "[20]", "result": 87, "unit": "%"}, {"measurement": "inhibition", "setting": "[21]", "result": 31, "unit": "%"}, {"measurement": "inhibition", "setting": "[22]", "result": 96, "unit": "%"}, {"measurement": "inhibition", "setting": "[23]", "result": 0.1, "unit": "%"}, {"measurement": "inhibition", "setting": "[24]", "result": 34, "unit": "%"}, {"measurement": "inhibition", "setting": "[25]", "result": 86, "unit": "%"}, {"measurement": "inhibition", "setting": "[26]", "result": 45, "unit": "%"}, {"measurement": "inhibition", "setting": "[27]", "result": 69, "unit": "%"}]}
